{
  "source": "patent US5185363A",
  "about": "“Urea based lipoxygenase inhibiting compounds” (Abbott Laboratories, priority 1991, dated 1993)",
  "data": [
    {"target": "T1, 5-Lipoxygenase from RBL-1 20,000 xg Supernatant (Rattus norvegicus, UniProt P12527)", "T1 construct": "supermatant from 1.5 million homogenized RBL-1 cells; endogenous in cells; host or cells: RBL-1 cells, 20,000 x g supernatant of homogenate", "T1 sequence (P12527 1-673)": "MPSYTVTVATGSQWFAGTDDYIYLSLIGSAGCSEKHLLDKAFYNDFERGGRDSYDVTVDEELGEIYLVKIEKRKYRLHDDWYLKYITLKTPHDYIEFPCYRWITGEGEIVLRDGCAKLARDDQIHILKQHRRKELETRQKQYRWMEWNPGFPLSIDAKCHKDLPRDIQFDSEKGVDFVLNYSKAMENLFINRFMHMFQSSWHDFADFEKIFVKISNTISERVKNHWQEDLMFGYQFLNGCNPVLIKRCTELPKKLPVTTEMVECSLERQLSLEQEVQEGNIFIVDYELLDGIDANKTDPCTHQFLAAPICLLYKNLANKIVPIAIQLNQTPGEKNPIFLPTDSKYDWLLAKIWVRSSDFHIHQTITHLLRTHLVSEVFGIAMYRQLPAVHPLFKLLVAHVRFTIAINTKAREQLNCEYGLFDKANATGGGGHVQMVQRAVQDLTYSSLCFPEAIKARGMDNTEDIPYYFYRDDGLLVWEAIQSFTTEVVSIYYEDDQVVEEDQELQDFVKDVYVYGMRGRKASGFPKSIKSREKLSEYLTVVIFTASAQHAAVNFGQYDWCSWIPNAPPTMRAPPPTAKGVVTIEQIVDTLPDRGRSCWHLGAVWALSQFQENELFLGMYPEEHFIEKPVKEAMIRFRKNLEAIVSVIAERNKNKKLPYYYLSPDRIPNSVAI", "experiment": "In vitro inhibition of 5-lipoxygenase from RBL-1 20,000 xg supernatant", "type": "biochemical", "settings": "radiolabeled arachidonic acid", "description": "Assays to determine 5-lipoxygenase inhibitory activity were performed in […] incubations containing the 20,000xg supermatant from 1.5 million homogenized RBL-1 cells and various concentrations of the test compound. Reactions were initiated by addition of radiolabeled arachidonic acid and terminated by acidification and ether extraction. Reaction products were separated from nonconverted substrate by thin layer chromatography and measured by liquid scintillation spectroscopy. All incubations are performed in triplicate. Inhibition of 5-lipoxygenase activity was calculated as the ratio of the amount of product formed in the presence and absence of inhibitor. […] (Dyer, R.D.; Haviv, F.; Hanel, A. M.; Bornemier, D. A.; Carter, G. W. Fed. Proc., Fed. Am. Soc. Exp. Biol. 1984, 43, 1462A).", "units": {"IC50": "nM"}, "values": [
      {"smiles": "CCCCOc1ccc(C(C)N(O)C(N)=O)cc1", "note": "(stereo not drawn) [Example 119, N-Hydroxy-N-(1-(4-butoxyphenyl)ethyl) urea]", "IC50": 530},
      {"smiles": "Cc1ccc(CC(C)N(O)C(N)=O)s1", "note": "(stereo not drawn) [Example 72, N-Hydroxy-N-(2-(1-(5-methylthien-2-yl))propyl) urea]", "IC50": 800},
      {"smiles": "CC(c1ccc2ccccc2c1)N(O)C(=O)NO", "note": "(stereo not drawn) [Example 10, N,N'-dihydroxy-N-(1-(2-naphthyl)ethyl) urea]", "IC50": 870},
      {"smiles": "C=CCN(CC=C)c1ccc(C(C)N(O)C(N)=O)cc1", "note": "(stereo not drawn) [Example 121, N-Hydroxy-N-(1-(4-bis-allylaminophenyl)ethyl) urea]", "IC50": 740},
      {"smiles": "CNC(=O)N(O)C(C)c1ccc(Cl)c(C)c1", "note": "(stereo not drawn) [Example 124, N-Hydroxy-N-(1-(4-chloro-3-methylphenyl)ethyl)-N'-methyl urea]", "IC50": 600},
      {"smiles": "Cc1cc(C(C)N(O)C(=O)NCCO)c(C)s1", "note": "(stereo not drawn) [Example 60, N-hydroxy-N-(1-(2,5-dimethylthien-3-yl)ethyl)-N'-(2-hydroxyethyl) urea]", "IC50": 3500},
      {"smiles": "CC(c1ccc(Cc2ccccc2)s1)N(O)C(N)=O", "note": "(stereo not drawn) [Example 57, N-hydoxy-N-(1-(5-benzylthien-2-yl)ethyl) urea]", "IC50": 420},
      {"smiles": "CNC(=O)N(O)C(C)c1ccc(F)cc1", "note": "(stereo not drawn) [Example 110, N-Hydroxy-N-(1-(4-fluorophenyl)ethyl)-N'-methyl urea]", "IC50": 2300},
      {"smiles": "NC(=O)N(O)Cc1sccc1Sc1ccc(Br)cc1", "note": "[Example 141, N-hydroxy-N-[3-(4-bromophenylthio)thien-2-yl]methyl urea]", "IC50": 200},
      {"smiles": "NC(=O)N(O)Cc1sccc1Sc1ccccc1", "note": "[Example 134, N-hydroxy-N-[3-(phenylthio)thien-2-yl]methyl urea]", "IC50": 300},
      {"smiles": "CNC(=O)N(O)Cc1ccc(OCc2ccccc2)cc1", "note": "[Example 6, N-hydroxy-N-(4-phenylmethoxyphenylmethyl)-N'-methyl-urea]", "IC50": 540},
      {"smiles": "CNC(=O)N(O)C(C)c1ccc(Br)cc1", "note": "(stereo not drawn) [Example 98, N-Hydroxy-N-1-(4-bromophenyl)ethyl-N'-methyl-urea]", "IC50": 1100},
      {"smiles": "CNC(=O)N(O)C(C)c1ccc(F)cc1F", "note": "(stereo not drawn) [Example 104, N-Hydroxy-N-(1-(2,4-difluorophenyl)ethyl)-N'-methylurea]", "IC50": 3900},
      {"smiles": "CNC(=O)N(O)C(C)c1ccc(C)c(Br)c1", "note": "(stereo not drawn) [Example 115, N-Hydroxy-N-(1-(3-bromo-4-methylphenyl)ethyl)-N'-methyl urea]", "IC50": 600},
      {"smiles": "NC(=O)N(O)Cc1ccc(-c2ccccc2)s1", "note": "[Example 53, N-hydroxy-N-(1-(5-phenylthien-2-yl)methyl) urea]", "IC50": 200},
      {"smiles": "CC(C)(C)Sc1ccsc1CN(O)C(N)=O", "note": "[Example 147, N-hydroxy-N-[3-(tertbutylthio)thien-2-yl]methyl urea]", "IC50": 3700},
      {"smiles": "CC(c1ccc(OCCc2ccccc2)cc1)N(O)C(N)=O", "note": "(stereo not drawn) [Example 8, N-hydroxy-N-(1-(4-(2-phenyl)ethoxyphenyl)ethyl) urea]", "IC50": 330},
      {"smiles": "COc1ccc(C(C)N(O)C(N)=O)cc1", "note": "(stereo not drawn) [Example 116, N-Hydroxy-N-(1-(4-methoxyphenyl)ethyl) urea]", "IC50": 4400},
      {"smiles": "NC(=O)N(O)CCCc1ccsc1", "note": "[Example 69, N-hydroxy-N-(3-(1-thien-3-yl)propyl) urea]", "IC50": 1500},
      {"smiles": "CNC(=O)N(O)Cc1ccc(C)s1", "note": "[Example 52, N-hydroxy-N-1-(5-methylthien-2-yl)methyl-N'-methyl urea]", "IC50": 3900},
      {"smiles": "CC(c1ccc(F)c(Br)c1)N(O)C(N)=O", "note": "(stereo not drawn) [Example 122, N-Hydroxy-N-(1-(3-bromo-4-fluorophenyl)ethyl) urea]", "IC50": 800},
      {"smiles": "NC(=O)N(O)Cc1sccc1Br", "note": "[Example 127, N-hydroxy-N-(3-bromothien-2-yl)methyl urea]", "IC50": 1200},
      {"smiles": "CC(c1ccc(Sc2ccccc2)s1)N(O)C(N)=O", "note": "(stereo not drawn) [Example 139, N-hydroxy-N-[1-(5-(phenylthio)-thien-2-yl)ethyl]urea]", "IC50": 400},
      {"smiles": "CC(c1ccc(-c2ccccn2)s1)N(O)C(N)=O", "note": "(stereo not drawn) [Example 48, N-hydroxy-N-(1-(5-pyrid-2-yl)thien-2-yl)ethyl urea]", "IC50": 1700},
      {"smiles": "NC(=O)N(O)Cc1ccc(Cl)s1", "note": "[Example 129, N-hydroxy-N-(5-chlorothien-2-yl)methyl urea]", "IC50": 2000},
      {"smiles": "CNC(=O)N(O)Cc1ccc(-c2ccccc2)s1", "note": "[Example 54, N-hydroxy-N-(1-(5-phenylthien-2-yl)methyl)-N'-methyl urea]", "IC50": 310},
      {"smiles": "CCCCOc1ccc(C(C)N(O)C(N)=O)cc1", "note": "(stereo not drawn) [Example 11, N-hydroxy-N-(1-(4-butoxyphenyl)ethyl) urea]", "IC50": 1100},
      {"smiles": "CC(C)(C)Sc1ccc(CN(O)C(N)=O)s1", "note": "[Example 148, N-hydroxy-N-[5-(tertbutylthio)thien-2-yl]methyl urea]", "IC50": 300},
      {"smiles": "CC(C)(C)c1ccc(Sc2ccsc2CN(O)C(N)=O)cc1", "note": "[Example 144, N-hydroxy-N-[3-(4-tertbutylphenylthio)thien-2-yl]methyl urea]", "IC50": 200},
      {"smiles": "NC(=O)N(O)Cc1sccc1Sc1ccc(Cl)cc1", "note": "[Example 142, N-hydroxy-N-[3-(4-chlorophenylthio)thien-2-yl]methyl urea]", "IC50": 300},
      {"smiles": "NC(=O)N(O)Cc1sccc1Oc1ccccc1", "note": "[Example 156, N-hydroxy-N-[3-(phenoxy)thien-2-yl]methyl urea]", "IC50": 1000},
      {"smiles": "CCCCOc1cccc(C(C)N(O)C(N)=O)c1", "note": "(stereo not drawn) [Example 13, N-hydroxy-N-(1-(3-butoxyphenyl)ethyl) urea]", "IC50": 2800},
      {"smiles": "Cc1ccsc1C(C)N(O)C(N)=O", "note": "(stereo not drawn) [Example 46, N-hydroxy-N-1-(3-methylthien-2-yl)ethyl urea]", "IC50": 2100},
      {"smiles": "CNC(=O)N(O)Cc1cccc(Oc2ccccc2)c1", "note": "[Example 126]", "IC50": 800},
      {"smiles": "NC(=O)N(O)Cc1ccc(Oc2ccccc2)s1", "note": "[Example 155, N-hydroxy-N-[5-(phenoxy)thien-2-yl]methyl urea]", "IC50": 700},
      {"smiles": "NC(=O)N(O)Cc1sccc1Sc1ccc(O)cc1", "note": "[Example 140, N-hydroxy-N-[3-(4-hydroxyphenylthio)thien-2-yl]methyl urea]", "IC50": 400},
      {"smiles": "NC(=O)N(O)Cc1cc(Br)cs1", "note": "[Example 128, N-hydroxy-N-(4-bromothien-2-yl)methyl urea]", "IC50": 2500},
      {"smiles": "NC(=O)N(O)Cc1cc(Oc2ccc(Cl)cc2)cs1", "note": "[Example 158, N-hydroxy-N-[4-(4-chlorophenoxy)thien-2-yl]methyl urea]", "IC50": 400},
      {"smiles": "CNC(=O)N(O)C(C)c1ccc(F)c(Br)c1", "note": "(stereo not drawn) [Example 114, N-Hydroxy-N-(1-(3-bromo-4-fluorophenyl)ethyl)-N'-methyl urea]", "IC50": 900},
      {"smiles": "CNC(=O)N(O)C(C)c1ccc(Cl)cc1", "note": "(stereo not drawn) [Example 108, N-Hydroxy-N-(1-(4-chlorophenyl)ethyl)-N'-methyl urea]", "IC50": 400},
      {"smiles": "CC(c1ccc(SC(C)(C)C)s1)N(O)C(N)=O", "note": "(stereo not drawn) [Example 149, N-hydroxy-N-[1-(5-{terbutylthio}thien-2-yl)ethyl]urea]", "IC50": 800},
      {"smiles": "COC(=O)CCCNC(=O)N(O)C(C)c1ccsc1", "note": "(stereo not drawn) [Example 61]", "IC50": 2100},
      {"smiles": "CNC(=O)N(O)C(C)c1ccc(OC)cc1", "note": "(stereo not drawn) [Example 117, N-Hydroxy-N-(1-(4-methoxyphenyl)ethyl)-N'-methyl urea]", "IC50": 4430},
      {"smiles": "NC(=O)N(O)Cc1cc(Oc2ccccc2)cs1", "note": "[Example 157, N-hydroxy-N-[4-(phenoxy)thien-2-yl]methyl urea]", "IC50": 500},
      {"smiles": "NC(=O)N(O)Cc1sccc1SCc1ccco1", "note": "[Example 146, N-hydroxy-N-[3-(2-furfurylmethylthio)thien-2-yl]methyl urea]", "IC50": 700}
    ]}
  ]
}
